Experiment: xn = mol fraction of the nth substance listed

CC1CCCCC1 + C1CCOC1
303.15 K, 101.33 kPa
Settings	viscosity [mPa·s]
x2 = 0.111	0.604
x2 = 0.2072	0.576
x2 = 0.3062	0.548
x2 = 0.404	0.525
x2 = 0.4829	0.507
x2 = 0.504	0.503
x2 = 0.6018	0.487
x2 = 0.7067	0.47
x2 = 0.9006	0.447

CCCNCCC + CCO
viscosity [mPa·s], 101.33 kPa
Settings	x1 = 0.0942	x1 = 0.1946	x1 = 0.3116	x1 = 0.4115	x1 = 0.5186	x1 = 0.6176	x1 = 0.7061	x1 = 0.8005	x1 = 0.9058
303.15 K	1.05	1.048	0.9952	0.9229	0.8291	0.7485	0.6803	0.6208	0.56
313.15 K	0.8212	0.7926	0.7448	0.6985	0.6485	0.5986	0.5562	0.51	0.4624

CCCCCl + CC(C)CO
viscosity [mPa·s], 101 kPa
Settings	x1 = 0.0951	x1 = 0.2057	x1 = 0.3038	x1 = 0.4102	x1 = 0.5035	x1 = 0.6121	x1 = 0.7033	x1 = 0.8022	x1 = 0.9043
298.15 K	2.41	1.677	1.261	0.9677	0.7931	0.6506	–	0.5	0.4513
313.15 K	1.576	1.152	0.9054	0.7239	0.6137	0.5199	0.4687	0.4153	0.3832

CCOC(=O)c1ccccc1 + Cc1ccccc1
viscosity [mPa·s], 101 kPa
Settings	298.15 K	303.15 K	313.15 K
x1 = 0.0488	–	0.577	0.504
x1 = 0.1223	–	0.652	0.562
x1 = 0.1524	0.6845	–	–
x1 = 0.1712	–	0.701	0.601
x1 = 0.2201	–	0.749	0.637
x1 = 0.2923	–	0.823	0.694
x1 = 0.3425	–	0.875	0.734
x1 = 0.3548	0.9076	–	–
x1 = 0.4176	–	0.954	0.795
x1 = 0.4918	–	1.035	0.858
x1 = 0.5675	–	1.123	0.926
x1 = 0.63	1.279	–	–
x1 = 0.6436	–	1.22	1.001
x1 = 0.7352	1.452	–	–
x1 = 0.7452	–	1.359	1.109
x1 = 0.8194	–	1.473	1.198
x1 = 0.8445	1.655	–	–
x1 = 0.8969	–	1.605	1.312
x2 = 0.2273	1.495	–	–
x2 = 0.5945	0.939	–	–
x2 = 0.8392	0.679	–	–

CCCCCl + CC(C)O
298.15 K, 101 kPa
Settings	viscosity [mPa·s]
x2 = 0.1	0.438
x2 = 0.1661	0.468
x2 = 0.225	0.47
x2 = 0.2891	0.493
x2 = 0.35	0.522
x2 = 0.4295	0.579
x2 = 0.5105	0.642
x2 = 0.5479	0.675
x2 = 0.6603	0.809
x2 = 0.7645	1.044
x2 = 0.8538	1.338
x2 = 0.92	1.615

Cc1ccccc1[N+](=O)[O-] + Cc1ccccc1C
308.15 K, 101.33 kPa
Settings	viscosity [mPa·s]
x2 = 0.1023	1.548
x2 = 0.2014	1.392
x2 = 0.3006	1.262
x2 = 0.4018	1.143
x2 = 0.5041	1.027
x2 = 0.6102	0.928
x2 = 0.7028	0.85
x2 = 0.8056	0.773
x2 = 0.9008	0.709
